Read-outs that look alike come from different tables or passages of the source.
What was measured:
MV4:11 cell line = assay: Anti-proliferation study; type: cell-based; details: compared to CC001, FIG. 7
[1] = Pharmacokinetic study, IP 100 mg/kg, whole blood concentration; type: in vivo, male CD1 mice; details: for AUC(0-inf) / AUC(0-t) / Cmax / half-life / Tmax / concentration at 0.083 hr / concentration at 0.25 hr / concentration at 0.5 hr / concentration at 1 h / concentration at 2 h / concentration at 4 h / concentration at 8 h / concentration at 24 h: male, CD1, mouse, ip, 100 mg/kg
Experimental: Pharmacokinetic studies in CD1 mice using the compound of Example 1 (i.e. CC-006) (100 mg/kg, IP dose) were also performed.

[2] = read-out: Concentration Mouse#1
[3] = read-out: Concentration Mouse#2
[4] = read-out: Concentration Mouse#3

CC(C)N(C[C@H]1C[C@@H](n2cc(C#N)c3c(N)ncnc32)[C@H](O)[C@@H]1O)C1CC(CCc2nc3ccc(C(C)(C)C)cc3[nH]2)C1 (stereo partly drawn) [Example 1, 4-amino-7-((1R,2S,3R,4R)-4-(((3-(2-(6-(tert-butyl)-1H-benzo[d]imidazol-2-yl)ethyl)cyclobutyl)(isopropyl)amino)methyl)-2,3-dihydroxycyclopentyl)-7H-pyrrolo[2,3-d]pyrimidine-5-carbonitrile]
anti-proliferation activity (MV4:11 cell line): greater than known DOT1L inhibitor CC001 | AUC(0-inf) ([1]; read-out: AUCINF Mean): 86900 ng·h/mL | AUC(0-inf) ([1]; read-out: AUCINF Mouse#1): 58900 ng·h/mL | AUC(0-inf) ([1]; read-out: AUCINF Mouse#2): 72900 ng·h/mL | AUC(0-inf) ([1]; read-out: AUCINF Mouse#3): 129000 ng·h/mL | AUC(0-t) ([1]; read-out: AUClast Mean): 84400 ng·h/mL | AUC(0-t) ([1]; read-out: AUClast Mouse#1): 57100 ng·h/mL | AUC(0-t) ([1]; read-out: AUClast Mouse#2): 70500 ng·h/mL | AUC(0-t) ([1]; read-out: AUClast Mouse#3): 126000 ng·h/mL | Cmax ([1]; read-out: Cmax Mean): 15300 ng/mL | Cmax ([1]; read-out: Cmax Mouse#1): 13100 ng/mL | Cmax ([1]; read-out: Cmax Mouse#2): 15000 ng/mL | Cmax ([1]; read-out: Cmax Mouse#3): 17800 ng/mL | half-life ([1]; read-out: Terminal t1/2 Mean (converted)): 4.65 h | half-life ([1]; read-out: Terminal t1/2 Mouse#1 (converted)): 4.64 h | half-life ([1]; read-out: Terminal t1/2 Mouse#2 (converted)): 4.8 h | half-life ([1]; read-out: Terminal t1/2 Mouse#3 (converted)): 4.51 h | Tmax ([1]; read-out: Tmax Mean): 0.833 h | Tmax ([1]; read-out: Tmax Mouse#1): 1 h | Tmax ([1]; read-out: Tmax Mouse#2): 1 h | Tmax ([1]; read-out: Tmax Mouse#3): 0.5 h | concentration at 0.083 hr ([1]; read-out: Concentration Mean): 5350 ng/mL | concentration at 0.083 hr [1, 2]: 4600 ng/mL | concentration at 0.083 hr [1, 3]: 5940 ng/mL | concentration at 0.083 hr [1, 4]: 5500 ng/mL | concentration at 0.25 hr ([1]; read-out: Concentration Mean): 12700 ng/mL | concentration at 0.25 hr [1, 2]: 12000 ng/mL | concentration at 0.25 hr [1, 3]: 13400 ng/mL | concentration at 0.25 hr [1, 4]: 12800 ng/mL | concentration at 0.5 hr ([1]; read-out: Concentration Mean): 14300 ng/mL | concentration at 0.5 hr [1, 2]: 11100 ng/mL | concentration at 0.5 hr [1, 3]: 14100 ng/mL | concentration at 0.5 hr [1, 4]: 17800 ng/mL | concentration at 1 h ([1]; read-out: Concentration Mean): 15200 ng/mL | concentration at 1 h [1, 2]: 13100 ng/mL | concentration at 1 h [1, 3]: 15000 ng/mL | concentration at 1 h [1, 4]: 17500 ng/mL | concentration at 2 h ([1]; read-out: Concentration Mean): 12600 ng/mL | concentration at 2 h [1, 2]: 10500 ng/mL | concentration at 2 h [1, 3]: 11300 ng/mL | concentration at 2 h [1, 4]: 16100 ng/mL | concentration at 4 h ([1]; read-out: Concentration Mean): 7450 ng/mL | concentration at 4 h [1, 2]: 4210 ng/mL | concentration at 4 h [1, 3]: 5380 ng/mL | concentration at 4 h [1, 4]: 12800 ng/mL | concentration at 8 h ([1]; read-out: Concentration Mean): 2000 ng/mL | concentration at 8 h [1, 2]: 957 ng/mL | concentration at 8 h [1, 3]: 1460 ng/mL | concentration at 8 h [1, 4]: 3570 ng/mL | concentration at 24 h ([1]; read-out: Concentration Mean): 382 ng/mL | concentration at 24 h [1, 2]: 266 ng/mL | concentration at 24 h [1, 3]: 350 ng/mL | concentration at 24 h [1, 4]: 531 ng/mL | Concentration Mean ([1]; sampling time 0 hr): BQL | Concentration Mouse#1 ([1]; sampling time 0 hr): BQL | Concentration Mouse#2 ([1]; sampling time 0 hr): BQL | Concentration Mouse#3 ([1]; sampling time 0 hr): BQL

From patent US9458165B2, “DOT1L inhibitors” (Dana-Farber Cancer Institute, Inc., priority 2014, dated 2016)
